14 compounds from US12600726B2, “Antagonists of the muscarinic acetylcholine receptor M4” (Vanderbilt University, priority 2017, dated 2026) can be followed below.

Test [1] addresses T1, Rat M4 (Rattus norvegicus, UniProt P08485).
T1 construct: expressed in transfected cells; host or cells: CHO-K1 (ATCC), stably expressing M4 and Gqi5
T1 sequence (P08485 1-478): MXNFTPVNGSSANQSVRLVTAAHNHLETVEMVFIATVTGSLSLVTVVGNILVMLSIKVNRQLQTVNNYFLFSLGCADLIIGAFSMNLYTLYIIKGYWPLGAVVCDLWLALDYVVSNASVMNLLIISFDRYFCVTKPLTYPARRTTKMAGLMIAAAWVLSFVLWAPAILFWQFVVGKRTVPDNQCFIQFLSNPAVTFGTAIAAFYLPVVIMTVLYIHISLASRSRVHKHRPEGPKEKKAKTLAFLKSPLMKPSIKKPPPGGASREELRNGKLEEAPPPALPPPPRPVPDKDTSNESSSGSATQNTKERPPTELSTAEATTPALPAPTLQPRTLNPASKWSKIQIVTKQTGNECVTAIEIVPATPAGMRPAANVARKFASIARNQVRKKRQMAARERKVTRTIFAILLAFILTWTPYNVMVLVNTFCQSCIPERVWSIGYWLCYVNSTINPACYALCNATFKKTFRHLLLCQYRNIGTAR
In words: mAChR M4 cell-based functional calcium flux assay (rat M4/Gqi5/CHO cells). Particulars: for Emin (rat M4): % ACh maximum at 30 μM. As to the method: (§1) Human, rat, or mouse M4. cDNA, along with the chimeric G protein Gqi5, were transfected into Chinese hamster ovary (CHO-K1) cells purchased from the American Type Culture Collection using Lipofectamine2000. M4/Gqi5/CHO cells were grown in Ham's F-12 medium containing 10% heat-inactivated fetal bovine serum (FBS), 20 mM HEPES, 500 μg/mL G418 sulfate, and 200 μg/mL Hygromycin B.
(§2) For high throughput measurement of agonist-evoked increases in intracellular calcium, CHO-K1 cells stably expressing muscarinic receptors were plated in growth medium lacking G418 and hygromycin at 15,000 cells/20 μL/well in Greiner 384-well black-walled, tissue culture (TC)-treated, clear-bottom plates (VWR). Cells were incubated overnight at 37° C. and 5% CO2. The next day, cells were washed using an ELX 405 (BioTek) with assay buffer; the final volume was then aspirated to 20 μL. Next, 20 μL of a 2.3 μM stock of Fluo-4/acetoxymethyl ester (Invitrogen, Carlsbad, CA), prepared as a 2.3 mM stock in DMSO and mixed in a 1:1 ratio with 10% (w/v) Pluronic F-127 and diluted in assay buffer, was added to the wells and the cell plates were incubated for 50 min at 37° C. and 5% CO2. Dye was removed by washing with the ELX 405 and the final volume was aspirated to 20 μL. Compound master plates were formatted in a 10 point concentration-response curve (CRC) format (1:3 dilutions) in 100% DMSO with a starting concentration of 10 or 1 mM using a BRAVO liquid handler (Agilent). Test compound CRCs were then transferred to daughter plates (240 nL) using the Echo acoustic plate reformatter (Labcyte, Sunnyvale, CA) and then diluted into assay buffer (40 μL) to a 2× stock using a Thermo Fisher Combi (Thermo Fisher Scientific, Waltham, MA).
(§3) Calcium flux was measured using the Functional Drug Screening System (FDSS) 6000 or 7000 (Hamamatsu Corporation, Tokyo, Japan) as an increase in the fluorescent static ratio. Compounds were applied to cells (20 μL, 2×) using the automated system of the FDSS at 2 seconds into the protocol and the data were collected at 1 Hz. At 143 s, 10 μL of an EC20 concentration of the muscarinic receptor agonist acetylcholine was added (5×), followed by the addition of 12 μL of an EC80 concentration of acetylcholine at the 268 s time point (5×). Agonist activity was analyzed as a concentration-dependent increase in calcium mobilization upon compound addition. Positive allosteric modulator activity was analyzed as a concentration-dependent increase in the EC20 acetylcholine response. Antagonist activity was analyzed as a concentration-dependent decrease in the EC80 acetylcholine response; for the purposes of the tables herein, an IC50 (inhibitory concentration 50) was calculated as a concentration-dependent decrease of the response elicited by an EC80 concentration of acetylcholine. Concentration-response curves were generated using a four-parameter logistical equation in XLFit curve fitting software (IDBS, Bridgewater, NJ) for Excel (Microsoft, Redmond, WA) or Prism (GraphPad Software, Inc., San Diego, CA) or the Dotmatics software platform (Dotmatics, Bishop's Stortford, UK).
(§4) Compounds were synthesized as described above. Activity (IC50 and Emin) was determined in the mAChR M4 cell-based functional assay as described above and the data are shown in Table 2 and Table 3. The compound number corresponds to the compound numbers used in the examples and Tables 1 and 1.1.

The target of test [2] is T2, Human M4 (Homo sapiens, UniProt P08173).
T2 construct: expressed in transfected cells; host or cells: CHO-K1 (ATCC), stably expressing M4 and Gqi5
T2 sequence (P08173 1-479): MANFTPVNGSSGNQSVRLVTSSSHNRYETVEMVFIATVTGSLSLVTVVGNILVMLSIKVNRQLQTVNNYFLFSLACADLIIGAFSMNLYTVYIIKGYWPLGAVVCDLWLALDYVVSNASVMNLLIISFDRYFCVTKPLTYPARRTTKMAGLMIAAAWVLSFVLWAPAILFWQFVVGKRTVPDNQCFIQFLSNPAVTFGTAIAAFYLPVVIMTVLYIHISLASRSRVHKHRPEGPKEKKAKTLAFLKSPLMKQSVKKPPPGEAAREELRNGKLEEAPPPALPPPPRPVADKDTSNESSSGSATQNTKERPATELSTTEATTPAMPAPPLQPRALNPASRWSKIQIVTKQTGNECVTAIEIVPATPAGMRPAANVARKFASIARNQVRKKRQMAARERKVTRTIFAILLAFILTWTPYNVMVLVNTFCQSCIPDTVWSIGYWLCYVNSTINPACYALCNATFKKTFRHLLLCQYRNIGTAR
The test can be described thus: mAChR M4 cell-based functional calcium flux assay (human M4/Gqi5/CHO cells). The settings on record: for Emin (human M4): % ACh maximum at 30 μM; for IC50: decrease of the response to an EC80 concentration of acetylcholine. As to the method:
as §1, §2, §3, §4

Where [3] appears, read: decrease of the response to an EC80 concentration of acetylcholine.

Regarding `Fc1ccc(Cl)c(-c2ccc(NCC3CC34CCN(CC35CC6CC(CC(C6)C3)C5)CC4)nn2)c1` (centres unmarked) [Compound 16, N-[[6-(1-adamantylmethyl)-6-azaspiro[2.5]octan-2-yl]methyl]-6-(2-chloro-5-fluoro-phenyl)pyridazin-3-amine], the “Emin (rat M4)” value in test [1] was 3.13%. In addition, in test [1] (setting [3]), the IC50 is 0.496 µM. In test [2], the “Emin (human M4)” value is reported as 2.44% and the 50% inhibitory concentration (IC50) came to 94.1 nM.

As to `Fc1ccc(Cl)c(-c2ccc(NCC3CC34CCN(CC(c3ccccc3)c3ccccc3)CC4)nn2)c1` (centres unmarked) [Compound 17, 6-(2-chloro-5-fluoro-phenyl)-N-[[6-(2,2-diphenylethyl)-6-azaspiro[2.5]octan-2-yl]methyl]pyridazin-3-amine], the “Emin (rat M4)” value in test [1] is on record as 12.1%. Moreover, in test [1] (setting [3]), the half-maximal inhibitory concentration (IC50) was 2.98 µM. For the same compound, in test [2], the “Emin (human M4)” value came out at 3.82% and the IC50 was 987 nM.

Take `O=C(Nc1ccc(-c2cc(F)ccc2Cl)nn1)C1CC12CCN(CC1CC3C=CC1C3)CC2` (centres unmarked) [Compound 18, 6-(5-bicyclo[2.2.1]hept-2-enylmethyl)-N-[6-(2-chloro-5-fluoro-phenyl)pyridazin-3-yl]-6-azaspiro[2.5]octane-2-carboxamide]: the “Emin (rat M4)” value in test [1] stood at 4.72%. Moreover, the IC50 in test [1] (setting [3]) is 3.09 µM; in test [2] it was 870 nM. For the same compound, the “Emin (human M4)” value in test [2] is 3.46%.

Consider `CC(CN1CCC2(CC1)CC2C(=O)Nc1ccc(-c2cc(F)ccc2Cl)nn1)C(C)(C)C` (centres unmarked) [Compound 19, N-[6-(2-chloro-5-fluoro-phenyl)pyridazin-3-yl]-6-(2,3,3-trimethylbutyl)-6-azaspiro[2.5]octane-2-carboxamide], for which the “Emin (rat M4)” value in test [1] was 34.9%. The IC50 in test [1] (cells printed in μM, decrease of the EC80 acetylcholine response) is more than 10 µM. Also, in test [2], the “Emin (human M4)” value is recorded as 6.57% and the half-inhibitory concentration (IC50) was found to be 5060 nM.

Regarding `CC(C)(C)CCN1CCC2(CC1)CC2CNc1ccc(Cl)nn1` (centres unmarked) [Compound 20, 6-chloro-N-[[6-(3,3-dimethylbutyl)-6-azaspiro[2.5]octan-2-yl]methyl]pyridazin-3-amine], the “Emin (rat M4)” value in test [1] worked out at 5.14%. Moreover, the IC50 in test [1] (setting [3]) is 1.09 µM. In test [2], the “Emin (human M4)” value came out at 3.47% and the half-inhibitory concentration (IC50) is 270 nM.

Consider `Cc1nn(C)cc1-c1cnc(NCC2CC23CCN(CC2CC4C=CC2C4)CC3)cn1` (centres unmarked) [Compound 21, N-[[6-(5-bicyclo[2.2.1]hept-2-enylmethyl)-6-azaspiro[2.5]octan-2-yl]methyl]-5-(1,3-dimethylpyrazol-4-yl)pyrazin-2-amine], for which the “Emin (rat M4)” value in test [1] stood at 4.56%. Further, in test [1] (setting [3]), the IC50 was 0.191 µM. In addition, in test [2], the “Emin (human M4)” value came to 3.65% and the concentration for half-maximal inhibition (IC50) worked out at 30.1 nM.

On to `Cc1nn(C)cc1-c1cnc(NCC2CC23CCN(CC(C)C(C)(C)C)CC3)cn1` (centres unmarked) [Compound 22, 5-(1,3-dimethylpyrazol-4-yl)-N-[[6-(2,3,3-trimethylbutyl)-6-azaspiro[2.5]octan-2-yl]methyl]pyrazin-2-amine], for which, in test [1], the “Emin (rat M4)” value stood at 4.67%. Further, the figures for the concentration for half-maximal inhibition (IC50) in test [1] (setting [3]) and in test [2] were 0.404 µM and 169 nM, respectively. For the same compound, in test [2], the “Emin (human M4)” value is recorded as 3.25%.

`Cc1nn(C)cc1-c1cnc(NCC2CC23CCN(CCC(C)(C)C)CC3)cn1` (centres unmarked) [Compound 23, N-[[6-(3,3-dimethylbutyl)-6-azaspiro[2.5]octan-2-yl]methyl]-5-(1,3-dimethylpyrazol-4-yl)pyrazin-2-amine]: the “Emin (rat M4)” value in test [1] was determined as 4.71%. For the same compound, the half-maximal inhibitory concentration (IC50) in test [1] (setting [3]) amounted to 0.278 µM; in test [2], 64.7 nM. For the same compound, the “Emin (human M4)” value in test [2] is listed as 2.71%.

For `CC(C)(C)CCN1CCC2(CC1)CC2CNc1ccc(-c2ccc(F)cc2Cl)nn1` (centres unmarked) [Compound 24, 6-(2-chloro-4-fluoro-phenyl)-N-[[6-(3,3-dimethylbutyl)-6-azaspiro[2.5]octan-2-yl]methyl]pyridazin-3-amine], the “Emin (rat M4)” value in test [1] stood at 3.19%. Besides, the half-maximal inhibitory concentration (IC50) in test [1] (setting [3]) amounted to 0.159 µM. Besides, in test [2], the “Emin (human M4)” value is 2.81% and the half-inhibitory concentration (IC50) was found to be 42.8 nM.

As to `Cc1ccncc1-c1ccc(NCC2CC23CCN(CCC(C)(C)C)CC3)nn1` (centres unmarked) [Compound 25, N-[[6-(3,3-dimethylbutyl)-6-azaspiro[2.5]octan-2-yl]methyl]-6-(4-methyl-3-pyridyl)pyridazin-3-amine], in test [1], the “Emin (rat M4)” value is listed as 3.75%. The IC50 is 0.0778 µM in test [1] (setting [3]) and 4.35 nM in test [2]. Besides, the “Emin (human M4)” value in test [2] came out at 2.93%.

Turning to `CC(C)(C)CCN1CCC2(CC1)CC2CNc1ccc(-c2ccccc2F)nn1` (centres unmarked) [Compound 26, N-[[6-(3,3-dimethylbutyl)-6-azaspiro[2.5]octan-2-yl]methyl]-6-(2-fluorophenyl)pyridazin-3-amine], the “Emin (rat M4)” value in test [1] was 3.40%. Moreover, the IC50 stood at 0.192 µM in test [1] (setting [3]) and 13.3 nM in test [2]. Moreover, the “Emin (human M4)” value in test [2] came out at 2.98%.

As for `CC(C)(C)CCN1CCC2(CC1)CC2CNc1ccc(-c2cccc(F)c2)nn1` (centres unmarked) [Compound 27, N-[[6-(3,3-dimethylbutyl)-6-azaspiro[2.5]octan-2-yl]methyl]-6-(3-fluorophenyl)pyridazin-3-amine], in test [1], the “Emin (rat M4)” value is listed as 3.07%. Moreover, in test [1] (setting [3]), the concentration for half-maximal inhibition (IC50) is 0.153 µM. Besides, in test [2], the “Emin (human M4)” value was 3.18% and the IC50 worked out at 21.3 nM.

As to `CC(C)(C)CCN1CCC2(CC1)CC2CNc1ccc(-c2ccc(F)cc2F)nn1` (centres unmarked) [Compound 28, 6-(2,4-difluorophenyl)-N-[[6-(3,3-dimethylbutyl)-6-azaspiro[2.5]octan-2-yl]methyl]pyridazin-3-amine], the “Emin (rat M4)” value in test [1] is listed as 2.59%. For the same compound, in test [1] (setting [3]), the half-inhibitory concentration (IC50) stood at 0.261 µM. For the same compound, in test [2], the “Emin (human M4)” value is 2.74% and the half-inhibitory concentration (IC50) is 55.7 nM.

As for `Cc1ccc(F)cc1-c1ccc(NCC2CC23CCN(CCC(C)(C)C)CC3)nn1` (centres unmarked) [Compound 29, N-[[6-(3,3-dimethylbutyl)-6-azaspiro[2.5]octan-2-yl]methyl]-6-(5-fluoro-2-methyl-phenyl)pyridazin-3-amine], the “Emin (rat M4)” value in test [1] came to 3.14%. The IC50 in test [1] (setting [3]) stood at 0.0398 µM. Also, in test [2], the “Emin (human M4)” value was determined as 2.78% and the IC50 was 17.2 nM.
